Where two headings read alike, the source gives them in different places.
Experiments:
A/Perth/16/2009 (H3N2) = test: Antiviral activity (drug efficacy evaluation by concentration) against A/Perth/16/2009 (H3N2); assay type: cell-based, A type influenza virus; conditions: Influenza A virus
B/Florida/04/2006 = test: Antiviral activity (drug efficacy evaluation by concentration) against B/Florida/04/2006; assay type: cell-based, B type influenza virus
[1] = tested on: A/California/07/2009 (H1N1); test: Antiviral activity (drug efficacy evaluation by concentration) against A/California/07/2009 (H1N1); assay type: cell-based, A type influenza virus; conditions: Influenza A virus
[2] = CC50, third EC50/CC50 column pair (c7), beside the EC50 of c6
[3] = H3N2, A/Perth/16/2009 (H3N2), read-out: EC50 A/Perth/16/2009 (H3N2)
[4] = CC50 B/Florida/04/2006, cytotoxicity in the B/Florida/04/2006 assay
[5] = read-out: EC50 B/Florida/04/2006, B/Florida/04/2006
[6] = H1N1, A/California/07/2009 (H1N1), read-out: EC50 A/California/07/2009 (H1N1)

SMILES	EC50 (A/Perth/16/2009 (H3N2); H3N2, read-out: EC50)	CC50 (in vitro; CC50, beside the EC50 of c2)	CC50 (in vitro; CC50, beside the EC50 of c4)	CC50 (in vitro; [2])	EC50 (B/Florida/04/2006)	EC50 ([1]; H1N1, read-out: EC50)	EC50 (A/Perth/16/2009 (H3N2); [3])	CC50 (in vitro; [4])	EC50 (B/Florida/04/2006; [5])	EC50 [1, 6]
Cc1cc(C)cc(Cc2nnc(CCc3ccccc3C(C)C)o2)c1 [Compound 94, 2-(3,5-dimethylbenzyl)-5-(2-isopropylphenethyl)-1,3,4-oxadiazole]	43.4 µM	> 50 µM	> 50 µM	> 50 µM	> 50 µM	37.8 µM	–	–	–	–
Cc1nn(Cc2nnc(Cc3cccc(Cl)c3)o2)c(C)c1Br [Compound 46, 2-((4-bromo-3,5-dimethyl-1H-pyrazol-1-yl)methyl)-5-(3-chlorobenzyl)-1,3,4-oxadiazole]	–	–	–	–	–	–	21.8 µM	> 50 µM	27.5 µM	24.3 µM
CC(C)c1ccccc1CCc1nnc(Cc2ccc(OC(F)(F)F)cc2)o1 [Compound 93, 2-(2-isopropylphenethyl)-5-(4-(trifluoromethoxy)benzyl)-1,3,4-oxadiazole]	31.5 µM	> 50 µM	> 50 µM	> 50 µM	45.1 µM	22.1 µM	–	–	–	–
CC(C)c1ccccc1OCc1nnc(Cc2ccc(Br)cc2)o1 [Compound 115, 2-(4-bromobenzyl)-5-((2-isopropylphenoxy)methyl)-1,3,4-oxadiazole]	38.2 µM	> 50 µM	> 50 µM	> 50 µM	45.1 µM	44.9 µM	–	–	–	–
Cc1nc2ccccc2n1Cc1nnc(SCc2ccccc2-c2ccccc2)o1 [Compound 41, 2-(([1,1′-biphenyl]-2-ylmethyl)thio)-5-((2-methyl-1H-benzo[d]imidazol-1-yl)methyl)-1,3,4-oxadiazole]	–	–	–	–	–	–	0.91 µM	19.7 µM	1.21 µM	0.69 µM
CC(C)Cc1ccc(C(C)c2nnc(/C=C/c3ccccc3C(C)C)o2)cc1 (stereo not shown) [Compound 148, 2-(1-(4-isobutylphenyl)ethyl)-5-(2-isopropylstyryl)-1,3,4-oxadiazole]	38.9 µM	> 50 µM	> 50 µM	> 50 µM	45.1 µM	39.8 µM	–	–	–	–
Brc1ccc(Cc2nnc(Cc3cccc4ccccc34)o2)cc1 [Compound 100, 2-(4-bromobenzyl)-5-(naphthalen-1-ylmethyl)-1,3,4-oxadiazole]	49 µM	> 50 µM	> 50 µM	> 50 µM	> 50 µM	> 50 µM	–	–	–	–
CC(C)c1ccccc1OCc1nnc(Cc2ccccc2)o1 [Compound 114, 2-benzyl-5-((2-isopropylphenoxy)methyl)-1,3,4-oxadiazole]	17.7 µM	21.8 µM	> 50 µM	> 50 µM	12 µM	17.7 µM	–	–	–	–
Cc1nn(Cc2nnc(SCc3ccccc3C(C)C)o2)c(C)c1Br [Compound 23, 2-((4-bromo-3,5-dimethyl-1H-pyrazol-1-yl)methyl)-5-((2-isopropylbenzyl)thio)-1,3,4-oxadiazole]	–	–	–	–	–	–	1.1 µM	14.2 µM	0.82 µM	0.6 µM
Cc1nn(Cc2nnc(SCc3ccccc3Cc3ccccc3)o2)c(C)c1Br [Compound 38, 2-((2-benzylbenzyl)thio)-5-((4-bromo-3,5-dimethyl-1H-pyrazol-1-yl)methyl)-1,3,4-oxadiazole]	–	–	–	–	–	–	1.04 µM	> 50 µM	1.18 µM	1.03 µM
Cc1cc(C)cc(Cc2nnc(/C=C/c3ccccc3C(C)C)o2)c1 [Compound 113, 2-(3,5-dimethylbenzyl)-5-(2-isopropylstyryl)-1,3,4-oxadiazole]	1.39 µM	10 µM	25.5 µM	40.2 µM	1.55 µM	1.37 µM	–	–	–	–
Cc1ccccc1CCc1nnc(Cc2ccc(Br)cc2)o1 [Compound 103, 2-(4-bromobenzyl)-5-(2-methylphenethyl)-1,3,4-oxadiazole]	3 µM	> 50 µM	> 50 µM	> 50 µM	3.15 µM	3.1 µM	–	–	–	–
Cc1cc(C)n(Cc2nnc(SCc3ccccc3-c3ccccc3)o2)n1 [Compound 5, 2-(([1,1′-biphenyl]-2-ylmethyl)thio)-5-((3,5-dimethyl-1H-pyrazol-1-yl)methyl)-1,3,4-oxadiazole]	–	–	–	–	–	–	10.7 µM	> 50 µM	9.49 µM	8.68 µM
Brc1ccn(Cc2nnc(SCc3ccccc3-c3ccccc3)o2)n1 [Compound 11, 2-(([1,1′-biphenyl]-2-ylmethyl)thio)-5-((3-bromo-1H-pyrazol-1-yl)methyl)-1,3,4-oxadiazole]	–	–	–	–	–	–	12.5 µM	> 50 µM	12.9 µM	13.2 µM
COC(c1ccccc1)c1nnc(SCc2ccccc2-c2ccccc2)o1 (stereo not shown) [Compound 97, 2-(([1,1′-biphenyl]-2-ylmethyl)thio)-5-(methoxy(phenyl)methyl)-1,3,4-oxadiazole]	5.9 µM	6.08 µM	6.2 µM	6 µM	2.53 µM	4.4 µM	–	–	–	–
Cc1nn(CCc2nnc(SCc3ccccc3-c3ccccc3)o2)c(C)c1Br [Compound 49, 2-(([1,1′-biphenyl]-2-ylmethyl)thio)-5-(2-(4-bromo-3,5-dimethyl-1H-pyrazol-1-yl)ethyl)-1,3,4-oxadiazole]	–	–	–	–	–	–	> 50 µM	> 50 µM	> 50 µM	> 50 µM
c1ccc(Cc2nnc(SCc3ccccc3-c3ccccc3)o2)cc1 [Compound 18, 2-(([1,1′-biphenyl]-2-ylmethyl)thio)-5-benzyl-1,3,4-oxadiazole]	–	–	–	–	–	–	6.8 µM	> 50 µM	5.18 µM	6.1 µM
c1ccc(-c2ccccc2CSc2nnc(Cn3cccn3)o2)cc1 [Compound 4, 2-((1H-pyrazol-1-yl)methyl)-5-(([1,1′-biphenyl]-2-ylmethyl)thio)-1,3,4-oxadiazole]	–	–	–	–	–	–	> 50 µM	> 50 µM	> 50 µM	> 50 µM
Clc1cccc(Cc2nnc(SCc3ccccc3-c3ccccc3)o2)c1 [Compound 95, 2-(([1,1′-biphenyl]-2-ylmethyl)thio)-5-(3-chlorobenzyl)-1,3,4-oxadiazole]	41.4 µM	> 50 µM	> 50 µM	> 50 µM	37.6 µM	12.5 µM	–	–	–	–
Cc1ccccc1CSc1nnc(Cn2nc(C)c(Br)c2C)o1 [Compound 9, 2-((4-bromo-3,5-dimethyl-1H-pyrazol-1-yl)methyl)-5-((2-methylbenzyl)thio)-1,3,4-oxadiazole]	–	–	–	–	–	–	5.55 µM	> 50 µM	4.7 µM	4.2 µM
CC(C)c1ccccc1/C=C/c1nnc(Cc2ccc(Br)c(F)c2)o1 [Compound 164, 2-(4-bromo-3-fluorobenzyl)-5-(2-isopropylstyryl)-1,3,4-oxadiazole]	4.32 µM	> 50 µM	> 50 µM	> 50 µM	8.35 µM	5.16 µM	–	–	–	–
Cc1nn(Cc2nnc(SCc3ccccc3)o2)c(C)c1Br [Compound 14, 2-(benzylthio)-5-((4-bromo-3,5-dimethyl-1H-pyrazol-1-yl)methyl)-1,3,4-oxadiazole]	–	–	–	–	–	–	20.5 µM	> 50 µM	16.4 µM	18 µM
c1ccc(-c2ccccc2CSc2nnc(Cc3ccccn3)o2)cc1 [Compound 27, 2-(([1,1′-biphenyl]-2-ylmethyl)thio)-5-(pyridin-2-ylmethyl)-1,3,4-oxadiazole]	–	–	–	–	–	–	6.8 µM	> 50 µM	13.4 µM	8.7 µM
Brc1ccc(OCc2nnc(SCc3ccccc3-c3ccccc3)o2)cc1 [Compound 58, 2-(([1,1′-biphenyl]-2-ylmethyl)thio)-5-((4-bromophenoxy)methyl)-1,3,4-oxadiazole]	–	–	–	–	–	–	44.3 µM	> 50 µM	> 50 µM	> 50 µM

Source: patent US11149033B2, “Heteroaryl compound, enantiomer, diastereomer or pharmaceutically acceptable salt thereof, and antiviral composition containing same as active ingredient” (priority 2016, dated 2021)
